Columns and labels:
BAZ1B = target: T1, BAZ1B (Homo sapiens, UniProt Q9UIG0); test: Thermal shift assay, BAZ1B; format: binding
T1 construct: purchased in-house (SGC bromodomain thermal shift / AlphaScreen panel)
T1 sequence (Q9UIG0 1-1483): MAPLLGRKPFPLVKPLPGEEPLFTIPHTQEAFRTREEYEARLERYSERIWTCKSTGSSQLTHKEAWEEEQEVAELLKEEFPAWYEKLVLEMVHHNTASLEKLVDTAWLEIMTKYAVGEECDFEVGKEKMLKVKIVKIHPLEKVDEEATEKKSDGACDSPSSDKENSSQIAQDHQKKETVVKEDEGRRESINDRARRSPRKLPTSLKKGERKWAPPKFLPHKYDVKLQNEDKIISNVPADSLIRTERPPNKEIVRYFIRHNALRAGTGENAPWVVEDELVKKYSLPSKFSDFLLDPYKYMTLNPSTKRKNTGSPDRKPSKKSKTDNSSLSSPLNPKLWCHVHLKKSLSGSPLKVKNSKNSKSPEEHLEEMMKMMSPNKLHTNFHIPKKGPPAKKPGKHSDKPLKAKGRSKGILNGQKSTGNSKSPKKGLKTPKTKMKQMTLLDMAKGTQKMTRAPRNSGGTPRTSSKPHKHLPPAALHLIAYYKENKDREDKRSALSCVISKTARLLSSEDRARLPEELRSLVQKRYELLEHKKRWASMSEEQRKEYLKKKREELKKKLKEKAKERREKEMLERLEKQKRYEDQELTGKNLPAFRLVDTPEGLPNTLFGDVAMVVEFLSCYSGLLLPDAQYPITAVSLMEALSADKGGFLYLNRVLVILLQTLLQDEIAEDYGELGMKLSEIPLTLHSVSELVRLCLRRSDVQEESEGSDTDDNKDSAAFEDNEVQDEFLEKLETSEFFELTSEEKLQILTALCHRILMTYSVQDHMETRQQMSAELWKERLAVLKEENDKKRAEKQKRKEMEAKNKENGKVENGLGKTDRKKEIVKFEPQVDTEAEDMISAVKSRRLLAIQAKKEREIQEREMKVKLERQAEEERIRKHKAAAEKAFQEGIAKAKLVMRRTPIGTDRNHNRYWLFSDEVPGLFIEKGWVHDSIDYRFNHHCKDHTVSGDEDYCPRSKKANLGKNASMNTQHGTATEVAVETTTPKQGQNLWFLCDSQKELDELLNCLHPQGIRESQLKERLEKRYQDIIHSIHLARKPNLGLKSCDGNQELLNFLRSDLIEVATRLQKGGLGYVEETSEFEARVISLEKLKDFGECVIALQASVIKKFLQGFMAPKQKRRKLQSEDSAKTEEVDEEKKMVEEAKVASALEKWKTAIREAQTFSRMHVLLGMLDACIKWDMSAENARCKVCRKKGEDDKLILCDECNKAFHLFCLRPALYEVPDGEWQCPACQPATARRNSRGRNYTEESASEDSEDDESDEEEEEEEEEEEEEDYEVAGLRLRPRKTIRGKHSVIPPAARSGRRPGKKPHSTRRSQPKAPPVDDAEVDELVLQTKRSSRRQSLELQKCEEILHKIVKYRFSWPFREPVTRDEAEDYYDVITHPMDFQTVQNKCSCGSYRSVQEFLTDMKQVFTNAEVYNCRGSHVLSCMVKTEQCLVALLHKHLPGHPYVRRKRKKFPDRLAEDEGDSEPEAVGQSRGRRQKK
Method: (§1) II.VII Thermal Shift Assay[6]
(§2) Thermal melting experiments were carried out using an Mx3005p Real Time PCR machine (Stratagene). Proteins were buffered in 10 mM HEPES pH 7.5, 500 mM NaCl and assayed in a 96-well plate at a final concentration of 2 μM in 20 μL volume. Compounds were added at a final concentration of 50 μM. SYPRO Orange (Molecular Probes) was added as a fluorescence probe at a dilution of 1:1000. Excitation and emission filters for the SYPRO-Orange dye were set to 465 nm and 590 nm, respectively. The temperature was raised with a step of 3 °C per minute from 25 °C to 96 °C and fluorescence readings were taken at each interval. The unfolding curves were fitted using the Boltzmann equation to determine the middle point of the transition.

BAZ2B = target: T2, BAZ2B (Homo sapiens, UniProt Q9UIF8); test: Thermal shift assay, BAZ2B; format: binding
T2 construct: purchased in-house (SGC bromodomain thermal shift / AlphaScreen panel)
T2 sequence (Q9UIF8 whole entry): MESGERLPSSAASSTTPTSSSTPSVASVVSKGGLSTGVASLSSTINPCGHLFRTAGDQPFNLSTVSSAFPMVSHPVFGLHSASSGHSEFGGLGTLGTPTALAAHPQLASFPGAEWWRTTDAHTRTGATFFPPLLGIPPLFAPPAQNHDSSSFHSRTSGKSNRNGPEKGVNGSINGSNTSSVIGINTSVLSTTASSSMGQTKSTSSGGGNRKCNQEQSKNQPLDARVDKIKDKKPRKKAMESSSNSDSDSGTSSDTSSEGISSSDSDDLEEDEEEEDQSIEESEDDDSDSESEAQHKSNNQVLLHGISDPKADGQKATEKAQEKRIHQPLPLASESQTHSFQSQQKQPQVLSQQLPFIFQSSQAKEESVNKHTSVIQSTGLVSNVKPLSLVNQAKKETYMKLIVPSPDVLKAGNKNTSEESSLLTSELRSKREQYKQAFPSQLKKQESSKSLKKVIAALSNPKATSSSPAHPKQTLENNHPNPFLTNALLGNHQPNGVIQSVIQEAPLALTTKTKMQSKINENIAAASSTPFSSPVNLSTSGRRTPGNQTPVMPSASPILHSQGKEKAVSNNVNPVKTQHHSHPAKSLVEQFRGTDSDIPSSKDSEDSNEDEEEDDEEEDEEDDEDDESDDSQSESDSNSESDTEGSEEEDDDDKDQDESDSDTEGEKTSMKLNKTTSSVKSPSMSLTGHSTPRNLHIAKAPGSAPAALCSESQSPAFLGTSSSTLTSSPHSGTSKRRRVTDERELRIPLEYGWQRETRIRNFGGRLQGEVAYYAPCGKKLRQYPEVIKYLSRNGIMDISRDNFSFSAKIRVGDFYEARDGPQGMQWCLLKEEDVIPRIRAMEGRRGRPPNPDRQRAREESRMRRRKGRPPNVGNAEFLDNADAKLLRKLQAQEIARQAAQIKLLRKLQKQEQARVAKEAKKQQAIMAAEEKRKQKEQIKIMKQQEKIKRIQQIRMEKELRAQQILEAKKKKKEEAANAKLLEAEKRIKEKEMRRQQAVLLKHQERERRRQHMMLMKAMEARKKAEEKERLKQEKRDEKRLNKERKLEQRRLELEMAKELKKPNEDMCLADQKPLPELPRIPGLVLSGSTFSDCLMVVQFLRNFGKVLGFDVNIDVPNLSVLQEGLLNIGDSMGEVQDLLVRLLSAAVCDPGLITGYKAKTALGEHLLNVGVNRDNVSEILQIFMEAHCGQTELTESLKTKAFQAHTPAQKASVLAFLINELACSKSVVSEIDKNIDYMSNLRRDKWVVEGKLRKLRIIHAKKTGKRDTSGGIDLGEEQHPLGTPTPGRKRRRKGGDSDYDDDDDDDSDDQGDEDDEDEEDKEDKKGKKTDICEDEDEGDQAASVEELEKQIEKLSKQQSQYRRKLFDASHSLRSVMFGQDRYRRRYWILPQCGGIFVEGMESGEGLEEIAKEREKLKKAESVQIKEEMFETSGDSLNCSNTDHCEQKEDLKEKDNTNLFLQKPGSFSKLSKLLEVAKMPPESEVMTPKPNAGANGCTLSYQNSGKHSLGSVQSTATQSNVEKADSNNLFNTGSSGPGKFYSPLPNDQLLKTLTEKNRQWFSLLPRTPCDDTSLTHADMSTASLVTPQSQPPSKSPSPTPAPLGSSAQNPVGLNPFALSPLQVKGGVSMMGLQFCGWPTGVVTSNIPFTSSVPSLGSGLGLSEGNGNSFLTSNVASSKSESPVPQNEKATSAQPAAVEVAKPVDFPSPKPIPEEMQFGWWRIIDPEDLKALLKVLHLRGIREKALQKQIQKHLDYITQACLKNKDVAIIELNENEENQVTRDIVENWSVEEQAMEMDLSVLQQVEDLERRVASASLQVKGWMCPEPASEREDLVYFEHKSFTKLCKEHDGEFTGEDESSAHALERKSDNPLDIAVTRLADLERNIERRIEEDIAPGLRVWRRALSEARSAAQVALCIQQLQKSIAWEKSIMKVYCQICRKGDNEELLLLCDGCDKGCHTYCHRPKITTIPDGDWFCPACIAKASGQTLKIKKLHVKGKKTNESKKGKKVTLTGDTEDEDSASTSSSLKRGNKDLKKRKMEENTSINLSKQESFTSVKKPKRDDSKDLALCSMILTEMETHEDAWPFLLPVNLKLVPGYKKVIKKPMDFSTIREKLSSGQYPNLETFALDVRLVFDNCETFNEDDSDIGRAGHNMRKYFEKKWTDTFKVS
Method: as §1, §2

CCOC(=O)Nc1cc(-c2ccc(C)c(NS(C)(=O)=O)c2)nn2c(C)nnc12 [Bromosporine, reference compound]
Thermal stabilisation, BAZ1B (BAZ1B; 10 µM compound concentration): -0.23
Thermal stabilisation, BAZ2B (BAZ2B; 10 µM compound concentration): 1.385

C[C@H]1CCCN1Cc1nc2cc(NC(=O)c3ccc4c(cnn4C)c3)ccc2[nH]1 [Compound 92]
Thermal stabilisation, BAZ1B (BAZ1B; 50 μM compound): -0.19
Thermal stabilisation, BAZ2B (BAZ2B; 50 μM compound): 0.155

COC(=O)c1ccc(C(=O)Nc2ccc3[nH]c(CN4CCCCC4)nc3c2)cc1 [Compound 1]
Thermal stabilisation, BAZ1B (BAZ1B; 50 μM compound): 1.03
Thermal stabilisation, BAZ2B (BAZ2B; 50 μM compound): 0.57

Reference: PMC6348381, “Discovery of an MLLT1/3 YEATS Domain Chemical Probe” (Angewandte Chemie (International Ed. in English), 2018)
